This is an account of results in PubChem BioAssay (NCI).

Some test systems named below: A498 renal; CCRF-CEM leukemia; DU-145 prostate; HL-60(TB) leukemia; HT29 colon; K-562 leukemia; MOLT-4 leukemia; NCI/ADR-RES ovarian; OVCAR-3 ovarian; OVCAR-4 ovarian; PC-3 prostate; SK-MEL-28 melanoma; SK-OV-3 ovarian; SNB-19 CNS; SR leukemia; SW-620 colon; T-47D breast; UACC-257 melanoma; NCI-H522 lung.
What all share (assay): NCI tumour cell line growth inhibition, 48 h

Structures are written as SMILES.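 Interpolation was linear, between the two tested concentrations surrounding the appropriate level; five concentrations were tested over 48 hours in 96-well plates. At the TGI there is no net growth.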 A value given as a limit tells only on which side of the number the result lay.

On to `COc1ccccc1/C=C1\S/C(=N/Nc2nc(C)c(C(C)=O)s2)NC1=O`, for which the TGI in the assay with A498 renal was 45.5 µM; in the assay on CCRF-CEM leukemia, over 100 µM; in the assay on DU-145 prostate, over 100 µM; with HL-60(TB) leukemia it was 63.2 µM; in the assay with HT29 colon, over 100 µM; in the assay on K-562 leukemia it was over 100 µM. Also, the TGI with MOLT-4 leukemia was over 100 µM; in the assay with NCI/ADR-RES ovarian it was over 100 µM; in the assay on OVCAR-3 ovarian, 56.1 µM; in the assay with OVCAR-4 ovarian, over 100 µM; in the assay with PC-3 prostate, over 100 µM; in the assay with SK-MEL-28 melanoma, over 100 µM. The TGI is over 100 µM in the assay with SK-OV-3 ovarian; over 100 µM with SNB-19 CNS; over 100 µM with SR leukemia; over 100 µM in the assay with SW-620 colon; 72.8 µM with T-47D breast; over 100 µM in the assay on UACC-257 melanoma.
With `O=C1CCC2c3ccccc3NCN12` (stereo unspecified), the TGI in the assay with A498 renal, in the assay with CCRF-CEM leukemia, with DU-145 prostate, in the assay with HL-60(TB) leukemia, in the assay on HT29 colon and in the assay on K-562 leukemia was over 100 µM throughout. Also, the TGI in the assay on MOLT-4 leukemia, in the assay on NCI-H522 lung, with NCI/ADR-RES ovarian, with OVCAR-3 ovarian, with OVCAR-4 ovarian and in the assay on PC-3 prostate was over 100 µM each time. In addition, the TGI in the assay on SK-MEL-28 melanoma, in the assay with SK-OV-3 ovarian, with SNB-19 CNS, in the assay with SW-620 colon, in the assay with T-47D breast and with UACC-257 melanoma was over 100 µM in each case.
Regarding `CC(C)(C)OC(=O)[C@@H]1ON2O[C@H](OC3CCCC3(c3ccccc3)c3ccccc3)C[C@H]3OC(=O)[C@@H]1[C@H]32` (stereo partly specified), the TGI in the assay with CCRF-CEM leukemia, with DU-145 prostate, in the assay with HT29 colon, in the assay on K-562 leukemia, in the assay with NCI-H522 lung and with NCI/ADR-RES ovarian was over 100 µM each time. Moreover, the TGI in the assay on OVCAR-3 ovarian is 54.1 µM; in the assay on OVCAR-4 ovarian, 54.3 µM; in the assay with PC-3 prostate, over 100 µM; in the assay with SK-MEL-28 melanoma it was over 100 µM; with SK-OV-3 ovarian, over 100 µM; with SNB-19 CNS it was over 100 µM. The TGI in the assay on SR leukemia, in the assay on SW-620 colon, with T-47D breast and in the assay on UACC-257 melanoma was over 100 µM throughout.
For the molecule `COC(=O)c1cc(O)c(O)c(O)c1-c1c(O)c(O)c(O)c(SC[C@H](NC(=O)OCc2ccccc2)C(=O)OCc2ccccc2)c1C(=O)OC`, the TGI in the assay on A498 renal was over 100 µM; with CCRF-CEM leukemia, over 100 µM; with DU-145 prostate, over 100 µM; in the assay on HL-60(TB) leukemia, 39.8 µM; with HT29 colon, 86.5 µM; in the assay on K-562 leukemia it was 70.2 µM. Further, the TGI with MOLT-4 leukemia is 43.4 µM; with NCI-H522 lung, 59.3 µM; in the assay with NCI/ADR-RES ovarian, over 100 µM; in the assay with OVCAR-3 ovarian, over 100 µM; in the assay on OVCAR-4 ovarian, 89.9 µM; in the assay with PC-3 prostate, 62.7 µM. Also, the TGI with SK-MEL-28 melanoma was over 100 µM; in the assay on SK-OV-3 ovarian, over 100 µM; in the assay with SNB-19 CNS it was over 100 µM; in the assay on SW-620 colon, 62.8 µM; in the assay on T-47D breast, over 100 µM; in the assay on UACC-257 melanoma, over 100 µM.
Take `CCOC(=O)NN(C(=O)OCC)C(=C(C1=CCCCC1)N1CCOCC1)N(NC(=O)OCC)C(=O)OCC`: the TGI with A498 renal, in the assay with DU-145 prostate, in the assay with HL-60(TB) leukemia, with HT29 colon, in the assay with K-562 leukemia and in the assay with MOLT-4 leukemia was over 100 µM throughout. Further, the TGI in the assay with NCI/ADR-RES ovarian, with OVCAR-3 ovarian, in the assay on PC-3 prostate, with SK-MEL-28 melanoma, in the assay with SK-OV-3 ovarian and in the assay on SNB-19 CNS was over 100 µM in each case. Moreover, the TGI in the assay with SR leukemia, in the assay with SW-620 colon and in the assay on T-47D breast was over 100 µM each time.
In the case of `O=[N+]([O-])c1cc(-[n+]2cc([O-])on2)ccc1Cl`, the TGI is 62.4 µM with CCRF-CEM leukemia; 30.5 µM with DU-145 prostate; over 100 µM in the assay on HL-60(TB) leukemia; 28.5 µM in the assay with HT29 colon; over 100 µM in the assay with K-562 leukemia; 31.7 µM in the assay with NCI-H522 lung. Further, the TGI is 58.8 µM in the assay on NCI/ADR-RES ovarian; over 100 µM in the assay with OVCAR-3 ovarian; 29.1 µM in the assay with OVCAR-4 ovarian; over 100 µM in the assay on PC-3 prostate; 29.6 µM in the assay with SK-MEL-28 melanoma; over 100 µM with SK-OV-3 ovarian. Further, the TGI was 27.1 µM in the assay on SNB-19 CNS; over 100 µM in the assay on SR leukemia; 26.2 µM with SW-620 colon; 38.8 µM in the assay with T-47D breast; 27.5 µM in the assay with UACC-257 melanoma.
Turning to `CCOC(=O)c1c(N2CCCC2)[nH]c(=O)c(C(c2ccc(Cl)c([N+](=O)[O-])c2)c2c(O)c(C(=O)OCC)c(N3CCCC3)[nH]c2=O)c1O`, the TGI in the assay on A498 renal is over 100 µM; in the assay with CCRF-CEM leukemia, 79.3 µM; in the assay on DU-145 prostate, over 100 µM; in the assay on K-562 leukemia, over 100 µM; with MOLT-4 leukemia it was over 100 µM; with NCI-H522 lung, 74.1 µM. Also, the TGI in the assay on NCI/ADR-RES ovarian was 73.4 µM; with OVCAR-3 ovarian it was over 100 µM; with OVCAR-4 ovarian, over 100 µM; in the assay on PC-3 prostate, 83.9 µM; with SK-MEL-28 melanoma, over 100 µM; in the assay with SK-OV-3 ovarian, over 100 µM. The TGI was 49.9 µM in the assay with SNB-19 CNS; over 100 µM in the assay with SR leukemia; over 100 µM in the assay with SW-620 colon; over 100 µM with T-47D breast; over 100 µM in the assay with UACC-257 melanoma.
As to `c1ccc(Cn2c(-c3ccc(-c4ccccc4)cc3)cc3ccccc32)cc1`, the TGI in the assay with CCRF-CEM leukemia, in the assay on DU-145 prostate, in the assay on HL-60(TB) leukemia, with HT29 colon, in the assay on MOLT-4 leukemia and with NCI-H522 lung was over 100 µM throughout. The TGI in the assay with NCI/ADR-RES ovarian, in the assay with OVCAR-3 ovarian, with OVCAR-4 ovarian, with PC-3 prostate, in the assay with SK-MEL-28 melanoma and in the assay on SK-OV-3 ovarian was over 100 µM each time. For the same molecule, the TGI in the assay with SNB-19 CNS, in the assay on SR leukemia, in the assay on SW-620 colon, in the assay on T-47D breast and with UACC-257 melanoma was over 100 µM throughout.
